Here are results for six compounds from ChEMBL document CHEMBL5724914, “Linking interpersonal differences in gut microbiota composition and drug biotransformation activity” (2024).

The conditions of data set [1]: human gut metagenome, 24 h, 2 µM.
The conditions of data set [2]: human gut metagenome, 24 h, 2 µM. The source holds these as a separate data set.
Data set [3] can be described thus: The drug is tested on WLS-082 corresponding to human gut metagenome with ENA study accession number: PRJEB37062 and ENA sample accession number: ERS12561751 for biotransformation under anaerobic condition. The drug concentrations were measured over 9 timepoints collected between 0 and 24 hours of incubation by liquid-chromatography-coupled mass spectrometry (LC–MS). As to conditions: 2 µM.

For data set [4] the following is noted: human gut metagenome, 24 h, 2 µM. This is another data set of the same source.
A short description of data set [5]: The drug is tested on Z-016 corresponding to mouse gut metagenome with ENA study accession number: PRJEB37062 and ENA sample accession number: ERS12561815 for biotransformation under anaerobic condition. The drug concentrations were measured over 9 timepoints collected between 0 and 24 hours of incubation by liquid-chromatography-coupled mass spectrometry (LC–MS). Conditions: 2 µM.

For data set [6] the following is noted: human gut metagenome, 24 h, 2 µM. This is another data set of the same source.
Data set [7] can be described thus: The drug is tested on Z-021 corresponding to metagenome with ENA study accession number: PRJEB37062 and ENA sample accession number: ERS12561820 for biotransformation under anaerobic condition. The drug concentrations were measured over 9 timepoints collected between 0 and 24 hours of incubation by liquid-chromatography-coupled mass spectrometry (LC–MS). As to conditions: 2 µM.

Data set [8] is described as follows: The drug is tested on Z-013 corresponding to rabbit gut metagenome with ENA study accession number: PRJEB37062 and ENA sample accession number: ERS12561813 for biotransformation under anaerobic condition. The drug concentrations were measured over 9 timepoints collected between 0 and 24 hours of incubation by liquid-chromatography-coupled mass spectrometry (LC–MS). As to conditions: 2 µM.

A short description of data set [9]: The drug is tested on WLS-170 corresponding to human gut metagenome with ENA study accession number: PRJEB37062 and ENA sample accession number: ERS12561762 for biotransformation under anaerobic condition. The drug concentrations were measured over 9 timepoints collected between 0 and 24 hours of incubation by liquid-chromatography-coupled mass spectrometry (LC–MS). As to conditions: 2 µM.

Data set [10] can be described thus: The drug is tested on Z-004 corresponding to metagenome with ENA study accession number: PRJEB37062 and ENA sample accession number: ERS12561804 for biotransformation under anaerobic condition. The drug concentrations were measured over 9 timepoints collected between 0 and 24 hours of incubation by liquid-chromatography-coupled mass spectrometry (LC–MS). Conditions: 2 µM.

Data set [11] is described as follows: The drug is tested on Z-010 corresponding to metagenome with ENA study accession number: PRJEB37062 and ENA sample accession number: ERS12561810 for biotransformation under anaerobic condition. The drug concentrations were measured over 9 timepoints collected between 0 and 24 hours of incubation by liquid-chromatography-coupled mass spectrometry (LC–MS). As to conditions: 2 µM.

For data set [12] the following is noted: human gut metagenome, 24 h, 2 µM. The source holds these as a separate data set.
Data set [13] can be described thus: The drug is tested on Z-030 corresponding to mouse gut metagenome with ENA study accession number: PRJEB37062 and ENA sample accession number: ERS12561829 for biotransformation under anaerobic condition. The drug concentrations were measured over 9 timepoints collected between 0 and 24 hours of incubation by liquid-chromatography-coupled mass spectrometry (LC–MS). As to conditions: 2 µM.

Data set [14] in a line: The drug is tested on Z-006 corresponding to mouse gut metagenome with ENA study accession number: PRJEB37062 and ENA sample accession number: ERS12561806 for biotransformation under anaerobic condition. The drug concentrations were measured over 9 timepoints collected between 0 and 24 hours of incubation by liquid-chromatography-coupled mass spectrometry (LC–MS). As to conditions: 2 µM.

For data set [15] the following is noted: human gut metagenome, 24 h, 2 µM. The source holds these as a separate data set.
A short description of data set [16]: The drug is tested on WLS-240 corresponding to human gut metagenome with ENA study accession number: PRJEB37062 and ENA sample accession number: ERS12561773 for biotransformation under anaerobic condition. The drug concentrations were measured over 9 timepoints collected between 0 and 24 hours of incubation by liquid-chromatography-coupled mass spectrometry (LC–MS). Conditions: 2 µM.

Data set [17] in a line: The drug is tested on Z-029 corresponding to rat gut metagenome with ENA study accession number: PRJEB37062 and ENA sample accession number: ERS12561828 for biotransformation under anaerobic condition. The drug concentrations were measured over 9 timepoints collected between 0 and 24 hours of incubation by liquid-chromatography-coupled mass spectrometry (LC–MS). As to conditions: 2 µM.

The conditions of data set [18]: human gut metagenome, 24 h, 2 µM. The source holds these as a separate data set.
For data set [19] the following is noted: human gut metagenome, 24 h, 2 µM. The source holds these as a separate data set.
The conditions of data set [20]: human gut metagenome, 24 h, 2 µM. The source holds these as a separate data set.
Also: call rule not given here.

For the compound `O=C(O)CCc1nc(-c2ccccc2)c(-c2ccccc2)o1` [OXAPROZIN], the “Bacterial Biotransformation” value in data set [1], in [2], in data set [3], in data set [4], in data set [5] and in data set [6] was “Compound metabolized” in each case. Also, the “Bacterial Biotransformation” value in data set [7] is “Compound metabolized”; in data set [8], “Compound NOT metabolized”; in [9], “Compound metabolized”; in data set [10] it was “Compound NOT metabolized”; in [11], “Compound metabolized”; in data set [12], “Compound metabolized”. Further, the “Bacterial Biotransformation” value in [13] was “Compound NOT metabolized”; in [14], “Compound NOT metabolized”; in data set [15] it was “Compound metabolized”; in data set [16] it was “Compound metabolized”; in data set [17] it was “Compound NOT metabolized”; in data set [18] it was “Compound metabolized”. Moreover, the “Bacterial Biotransformation” value in data set [19] and in [20] was “Compound metabolized” in each case.

Take `CC(C)(C)NC[C@H](O)COc1ccccc1C1CCCC1.CC(C)(C)NC[C@H](O)COc1ccccc1C1CCCC1.O=S(=O)(O)O` [PENBUTOLOL SULFATE]: the “Bacterial Biotransformation” value is given as “Compound metabolized” in [1]; “Compound NOT metabolized” in data set [2]; “Compound metabolized” in [3]; “Compound metabolized” in data set [4]; “Compound NOT metabolized” in [5]; “Compound metabolized” in [6]. In addition, the “Bacterial Biotransformation” value in [7] is “Compound metabolized”; in data set [8], “Compound NOT metabolized”; in data set [9] it was “Compound metabolized”; in data set [10] it was “Compound metabolized”; in data set [11], “Compound metabolized”; in data set [12] it was “Compound metabolized”. Moreover, the “Bacterial Biotransformation” value in data set [13] was “Compound NOT metabolized”; in data set [14] it was “Compound NOT metabolized”; in data set [15], “Compound metabolized”; in [16] it was “Compound metabolized”; in data set [17], “Compound NOT metabolized”; in [18] it was “Compound metabolized”. For the same compound, the “Bacterial Biotransformation” value in data set [19] and in data set [20] was “Compound metabolized” each time.

With `CCOc1ccc(NC(C)=O)cc1` [PHENACETIN], the “Bacterial Biotransformation” value in data set [1], in [2], in data set [3], in data set [4], in data set [5] and in data set [6] was “Compound NOT metabolized” in each case. Also, the “Bacterial Biotransformation” value in data set [7], in data set [8], in [9], in data set [10], in data set [11] and in [12] was “Compound NOT metabolized” each time. The “Bacterial Biotransformation” value in [13], in [14], in data set [15], in [16], in data set [17] and in [18] was “Compound NOT metabolized” in each case. The “Bacterial Biotransformation” value in data set [19] and in data set [20] was “Compound NOT metabolized” throughout.

Turning to `Nc1ccc(/N=N/c2ccccc2)c(N)n1` [PHENAZOPYRIDINE], the “Bacterial Biotransformation” value in data set [1], in [2], in [3], in data set [4], in data set [5] and in [6] was “Compound metabolized” throughout. Further, the “Bacterial Biotransformation” value in data set [7], in data set [8], in [9], in data set [10], in data set [11] and in data set [12] was “Compound metabolized” throughout. In addition, the “Bacterial Biotransformation” value in data set [13], in data set [14], in data set [15], in data set [16], in data set [17] and in [18] was “Compound metabolized” each time. The “Bacterial Biotransformation” value in data set [19] and in data set [20] was “Compound metabolized” throughout.

Take `CC(C(=O)O)c1ccc2c(c1)Cc1cccnc1O2` (stereo not given) [PRANOPROFEN]: the “Bacterial Biotransformation” value in [1], in data set [2], in data set [3], in [4], in data set [5] and in data set [6] was “Compound metabolized” each time. Also, the “Bacterial Biotransformation” value in [7], in [8], in [9], in data set [10], in [11] and in [12] was “Compound metabolized” each time. Also, the “Bacterial Biotransformation” value in [13], in [14], in data set [15], in [16], in [17] and in data set [18] was “Compound metabolized” throughout. Besides, the “Bacterial Biotransformation” value in [19] and in [20] was “Compound metabolized” throughout.

With `CCc1nc(N)nc(N)c1-c1ccc(Cl)cc1` [PYRIMETHAMINE], the “Bacterial Biotransformation” value in data set [1], in data set [2], in data set [3], in [4], in data set [5] and in data set [6] was “Compound NOT metabolized” throughout. Besides, the “Bacterial Biotransformation” value in [7] was “Compound NOT metabolized”; in data set [8], “Compound NOT metabolized”; in data set [9], “Compound NOT metabolized”; in [10], “Compound NOT metabolized”; in data set [11], “Compound NOT metabolized”; in [12], “Compound metabolized”. Also, the “Bacterial Biotransformation” value is given as “Compound NOT metabolized” in [13]; “Compound NOT metabolized” in data set [14]; “Compound NOT metabolized” in data set [15]; “Compound metabolized” in data set [16]; “Compound NOT metabolized” in data set [17]; “Compound NOT metabolized” in [18]. In addition, the “Bacterial Biotransformation” value in [19] and in [20] was “Compound metabolized” throughout.
